In patent US20230248657A1, “METHODS OF ADMINISTERING TASTE MASKED PHENYLBUTYRATE AND COMPOSITIONS THEREFOR” (Acer Therapeutics Inc., priority 2020, published 2023):

Assay: Multi-dose plasma PK of PBA, GPB vs. BUPHENYL (NaPB), TID, fed
Type: in vivo, human
Conditions: GPB avg. dose 13.5 TID, N = 44, arithmetic mean

Plasma PBA AUC0-24: 443 µg·h/mL | Plasma PBA Cmax: 51.9 µg/mL | Plasma PBA Tmax: 8.0 h
Structure (SMILES): O=C(CCCc1ccccc1)OCC(COC(=O)CCCc1ccccc1)OC(=O)CCCc1ccccc1 [GPB, glycerol phenylbutyrate]
